Read-outs that look alike come from different tables or passages of the source.
Target: T1, APOL1 G1 (Homo sapiens, UniProt O14791, I384M/S342G)
T1 sequence (O14791 28-398 S342G/I384M): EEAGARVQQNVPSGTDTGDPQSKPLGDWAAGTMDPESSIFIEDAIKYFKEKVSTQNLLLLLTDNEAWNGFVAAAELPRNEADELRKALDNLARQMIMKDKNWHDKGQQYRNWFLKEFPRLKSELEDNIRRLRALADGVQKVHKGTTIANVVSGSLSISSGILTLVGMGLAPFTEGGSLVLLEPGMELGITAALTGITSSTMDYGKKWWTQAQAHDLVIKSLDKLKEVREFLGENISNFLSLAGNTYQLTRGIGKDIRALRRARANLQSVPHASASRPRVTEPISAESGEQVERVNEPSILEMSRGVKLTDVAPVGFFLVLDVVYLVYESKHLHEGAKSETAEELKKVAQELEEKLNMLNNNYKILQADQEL
Assay: MultiTox-Fluor Multiplex Cytotoxicity Assay, tet-inducible APOL1 G1 T-REx-HEK293 cells
Type: cell-based
Parameters: expressed in transfected cells; host or cells: T-REx HEK293, clone G1 DC3.25 (pAAVS1-Puro-APOL1 G1)
Details: for IC90: HEK293, Multi-Tox Assay, APOL1 variant (G0/G1/G2) of the HEK293 cells not given, read-out: Multi-Tox Assay IC90; for Emax: read-out: Multi-Tox Assay Max Activity (%)
Method in brief: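 T-REx-HEK293 cells carrying tet-inducible APOL1 G1 induced with 50 ng/mL tet alongside compound (top 10 µM, 10-point 3-fold, duplicate) for 24 h at 37 °C. MultiTox-Fluor dead/live protease fluorescence ratio read after 30 min; normalized to no-tet (100% viability) and tet-treated (0%) controls, then curve-fitted.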

[1] = Multi-Tox Assay, APOL1 variant not given

Row | SMILES | IC90 | Emax [1] | Multi-Tox Assay Max Activity (%) [1] | Emax
1 | CC1CC2(CC(c3ccc4c(c3)OCC(=O)N4)N1)OCCc1cc(Cl)sc12 (stereo not shown) [Compound 39] | < 50 nM | 99.7% | – | –
2 | CC1CC2(CC(c3cnn(-c4cccnc4)c3)N1)OCCc1cc(Cl)sc12 (stereo not shown) [Compound 40] | < 50 nM | – | 100.0% | –
3 | CNC(=O)c1ccc(C2CC3(CC(C)N2)OCCc2cc(Cl)sc23)cc1 (stereo not shown) [Compound 41] | < 50 nM | – | 99.7% | –
4 | Cc1nn(C)c2ncc(C3CC4(CC(C)N3)OCCc3cc(Cl)sc34)cc12 (stereo not shown) [Compound 42] | < 50 nM | – | 99.7% | –
5 | Cc1cc(C2CC3(CC(C)N2)OCCc2cc(Cl)sc23)ncn1 (stereo not shown) [Compound 43] | < 50 nM | – | 100.0% | –
6 | CC1CC2(CC(c3cncnc3)N1)OCCc1cc(Cl)sc12 (stereo not shown) [Compound 45] | < 50 nM | – | 100.0% | –
7 | CC1CC2(CC(c3cnn(CCS(C)(=O)=O)c3)N1)OCCc1cc(Cl)sc12 (stereo not shown) [Compound 46] | < 50 nM | – | – | –
8 | C[C@H]1C[C@@]2(C[C@@H](c3ccc(O)c(F)c3)N1)OCCc1cc(Cl)sc12 [Compound 51] | < 50 nM | – | 99.7% | –
9 | C[C@H]1C[C@@]2(C[C@@H](c3cnc(-c4cnn(C)c4)nc3)N1)OCCc1cc(Cl)sc12 [Compound 61] | < 50 nM | 99.7% | – | –
10 | C[C@H]1C[C@@]2(C[C@@H](c3ccc(O)nn3)N1)OCCc1cc(Cl)sc12 [Compound 86] | < 50 nM | 99.5% | – | –
11 | CCc1cc([C@@H]2C[C@]3(C[C@H](C)N2)OCCc2cc(Cl)sc23)on1 [Compound 91] | < 50 nM | 100% | – | –
12 | C[C@H]1C[C@@]2(C[C@@H](c3cnn(C4CCS(=O)(=O)C4)c3)N1)OCCc1cc(Cl)sc12 (stereo partly shown) [Compound 97] | < 50 nM | – | – | 99%
13 | C[C@H]1C[C@@]2(C[C@@H](c3cc(C4CCOCC4)[nH]n3)N1)OCCc1cc(Cl)sc12 [Compound 114] | 50 to 500 nM | – | 99.7% | –
14 | C[C@H]1C[C@@]2(C[C@@H](c3cc(C(F)(F)F)[nH]n3)N1)OCCc1cc(Cl)sc12 [Compound 119] | 50 to 500 nM | – | 99.7% | –
15 | CC1CC2(CC(c3cn(CC4CC4)nn3)N1)OCCc1cc(Cl)sc12 (stereo not shown) [Compound 122] | 50 to 500 nM | – | 99.7% | –
16 | C[C@H]1C[C@@]2(C[C@@H](c3cccn4ccnc34)N1)OCCc1cc(Cl)sc12 [Compound 143] | 50 to 500 nM | – | 98.0% | –
17 | C[C@H]1C[C@@]2(C[C@@H](c3cn(C)nn3)N1)OC[C@@H](O)c1cc(Cl)sc12 [Compound 174, (2'S, 4S, 6'S, 7S)-2-chloro-2'-methyl-6'-(1-methyltriazol-4-yl)spiro[4,5-dihydrothieno[2,3-c]pyran-7,4'-piperidine]-4-ol] | < 50 nM | 99.8% | – | –
18 | C[C@H]1C[C@@]2(C[C@@H](c3cn(C)nn3)N1)OC[C@H](O)c1cc(Cl)sc12 [Compound 177, (2'S,4R,6'S,7S)-2-chloro-2'-methyl-6'-(1-methyltriazol-4-yl)spiro[4,5-dihydrothieno[2,3-c]pyran-7,4'-piperidine]-4-ol] | < 50 nM | 100% | – | –
19 | C[C@H]1C[C@@]2(C[C@@H](c3cn(C)nn3)N1)OC[C@H](O)c1cc(C(F)(F)F)sc12 [Compound 180] | < 50 nM | 99.8% | – | –
20 | C[C@H]1C[C@@]2(C[C@@H](c3cn(C)nn3)N1)OC[C@@H](O)c1cc(C(F)(F)F)sc12 [Compound 181, (2S,4S,4'S,6S)-2-methyl-6-(1-methyl-1H-1,2,3-triazol-4-yl)-2'-(trifluoromethyl)-4',5'-dihydrospiro[piperidine-4, 7'-thieno[2,3-c]pyran]-4'-ol] | < 50 nM | 99.8% | – | –
21 | C[C@H]1C[C@@]2(C[C@@H](c3cn(C)nn3)N1)OC[C@@H](O)c1sc(Cl)cc12 [Compound 182] | < 50 nM | 100% | – | –
22 | C[C@H]1C[C@@]2(C[C@@H](c3cn(C)nn3)N1)OCC(F)(F)c1cc(Cl)sc12 [Compound 183, (2'S, 6'S, 7S)-2-chloro-4,4-difluoro-2'-methyl-6'-(1-methyltriazol-4-yl)spiro[5H-thieno[2,3-c]pyran-7,4'-piperidine]] | < 50 nM | 99.5% | – | –

Row | SMILES | IC90 | Emax [1] | Multi-Tox Assay Max Activity (%) [1] | Emax
23 | Cn1cc(C2CC3(CC(C4CCC4)N2)OCCc2cc(Cl)sc23)nn1 (stereo not shown) [Compound 189] | > 500 nM | 97% | – | –
24 | COCC1CC2(CC(c3cn(C)nn3)N1)OCCc1cc(Cl)sc12 (stereo not shown) [Compound 190] | 50 to 500 nM | 99% | – | –
25 | CC(C)C1CC2(CC(c3cn(C)nn3)N1)OCCc1cc(C(F)(F)F)sc12 (stereo not shown) [Compound 191] | 50 to 500 nM | 99.7% | – | –
26 | Cn1cc(C2CC3(CC(C4CCC4)N2)OCCc2cc(C(F)(F)F)sc23)nn1 (stereo not shown) [Compound 192] | 50 to 500 nM | 99% | – | –
27 | COCC1CC2(CC(c3cn(C)nn3)N1)OCCc1cc(C(F)(F)F)sc12 (stereo not shown) [Compound 193] | 50 to 500 nM | 99% | – | –
28 | C[C@H]1CC2(C[C@H](C)N1)OCCc1sc(C(F)(F)F)cc12 (stereo partly shown) [Compound 195] | > 500 nM | 76% | – | –
29 | C[C@H]1C[C@@]2(C[C@@H](CC3CCOCC3)N1)OCCc1cc(Cl)sc12 [Compound 219, (2S,6R)-2-chloro-2'-methyl-6'-(tetrahydropyran-4-ylmethyl)spiro[4,5-dihydrothieno[2,3-c]pyran-7,4'-piperidine]] | > 500 nM | 88.7% | – | –
30 | C[C@H]1C[C@@]2(C[C@@H](C3CC3)N1)OCC(O)c1cc(Cl)sc12 (stereo partly drawn) [Compound 220, (2'S,6'S,7S)-2-chloro-2'-cyclopropyl-6'-methyl-spiro[4,5-dihydrothieno[2,3-c]pyran-7,4'-piperidine]-4-ol] | < 50 nM | 99.3% | – | –
31 | C#C[C@@H]1C[C@]2(C[C@H](C)N1)OCCc1cc(Cl)sc12 [Compound 221, (2S,4S,6S)-2'-chloro-2-ethynyl-6-methyl-4',5'-dihydrospiro[piperidine-4,7'-thieno[2,3-c]pyran]] | 50 to 500 nM | 99% | – | –
32 | C#C[C@@H]1C[C@]2(C[C@H](C)N1)OC[C@@H](O)c1cc(Cl)sc12 [Compound 222, (2'S,4S,6'S,7S)-2-chloro-2'-ethynyl-6'-methyl-spiro[4,5-dihydrothieno[2,3-c]pyran-7,4'-piperidine]-4-ol] | 50 to 500 nM | 100% | – | –
33 | C#C[C@@H]1C[C@]2(C[C@H](C)N1)OCC(F)(F)c1cc(Cl)sc12 [Compound 223, (2'S,6'S,7S)-2-chloro-2'-ethynyl-4,4-difluoro-6'-methyl-spiro[5H-thieno[2,3-c]pyran-7,4'-piperidine]] | > 500 nM | 93% | – | –
34 | C[C@H]1C[C@@]2(C[C@@H](c3cn(Cc4ccc(CO)cc4)nn3)N1)OC[C@@H](O)c1cc(Cl)sc12 [Compound 224, (2'S,4S,6'S,7S)-2-chloro-2'-[1-[[4-(hydroxymethyl)phenyl]methyl]triazol-4-yl]-6'-methyl-spiro[4,5-dihydrothieno[2,3-c]pyran-7,4'-piperidine]-4-ol] | 50 to 500 nM | 99% | – | –
35 | C[C@H]1C[C@@]2(C[C@@H](c3cn(Cc4ccc(CO)cc4)nn3)N1)OCC(F)(F)c1cc(Cl)sc12 [Compound 225, (4-((4-((2S,4S,6S)-2'-chloro-4',4'-difluoro-2-methyl-4',5'-dihydrospiro[piperidine-4,7'-thieno[2,3-c]pyran]-6-yl)-1H-1,2,3-triazol-1-yl)methyl)phenyl)methanol] | 50 to 500 nM | – | 97.0% | –
36 | COCC(O)Cn1cc([C@@H]2C[C@]3(C[C@H](C)N2)OC[C@@H](O)c2cc(Cl)sc23)nn1 (stereo partly shown) [Compound 226] | 50 to 500 nM | – | 100.0% | –
37 | C[C@H]1C[C@@]2(C[C@@H](c3cn(CC4CCCCO4)nn3)N1)OC[C@@H](O)c1cc(Cl)sc12 (stereo partly shown) [Compound 227] | 50 to 500 nM | – | 100.0% | –
38 | C[C@H]1C[C@@]2(C[C@@H](c3cn(CCCS(C)(=O)=O)nn3)N1)OC[C@@H](O)c1cc(Cl)sc12 [Compound 228] | 50 to 500 nM | – | 100.0% | –
39 | COCCOCCn1cc([C@@H]2C[C@]3(C[C@H](C)N2)OC[C@@H](O)c2cc(Cl)sc23)nn1 [Compound 229] | 50 to 500 nM | – | 98.0% | –
40 | CC(C)C(=O)NCCn1cc([C@@H]2C[C@]3(C[C@H](C)N2)OC[C@@H](O)c2cc(Cl)sc23)nn1 [Compound 230] | > 500 nM | – | 98.0% | –
41 | C[C@H]1C[C@@]2(C[C@@H](c3cn(Cc4ccccc4S(C)(=O)=O)nn3)N1)OC[C@@H](O)c1cc(Cl)sc12 [Compound 231] | 50 to 500 nM | – | 95.0% | –
42 | C[C@H]1C[C@@]2(C[C@@H](c3cn(Cc4n[nH]c5ccccc45)nn3)N1)OC[C@@H](O)c1cc(Cl)sc12 [Compound 232] | 50 to 500 nM | – | 100.0% | –
43 | C[C@H]1C[C@@]2(C[C@@H](c3cn(CC4(O)CC4)nn3)N1)OC[C@@H](O)c1cc(Cl)sc12 [Compound 233] | 50 to 500 nM | – | 100.0% | –

— patent EP4810040A2, “INHIBITORS OF APOL1 AND METHODS OF USING SAME” (priority 2020, dated 2022)
